Experimental data as given in ChEMBL document CHEMBL6153170 (J Med Chem, 2025).
pIC50: −log10 of the molar value.

How the values were obtained:
[1] = molecular target: Programmed cell death protein 1/Programmed cell death 1 ligand 1 (Homo sapiens, UniProt Q9NZQ7); experiment: Inhibition of PD-1/PD-L1 (unknown origin) protein-protein interaction by HTRF assay; assay type: protein-complex assay
[2] = molecular target: T1, Protein deacetylase HDAC6 (Homo sapiens) (UniProt Q9UBN7); details: Sf9, dose 100.0 nM, time 30.0 min
T1 sequence (whole entry): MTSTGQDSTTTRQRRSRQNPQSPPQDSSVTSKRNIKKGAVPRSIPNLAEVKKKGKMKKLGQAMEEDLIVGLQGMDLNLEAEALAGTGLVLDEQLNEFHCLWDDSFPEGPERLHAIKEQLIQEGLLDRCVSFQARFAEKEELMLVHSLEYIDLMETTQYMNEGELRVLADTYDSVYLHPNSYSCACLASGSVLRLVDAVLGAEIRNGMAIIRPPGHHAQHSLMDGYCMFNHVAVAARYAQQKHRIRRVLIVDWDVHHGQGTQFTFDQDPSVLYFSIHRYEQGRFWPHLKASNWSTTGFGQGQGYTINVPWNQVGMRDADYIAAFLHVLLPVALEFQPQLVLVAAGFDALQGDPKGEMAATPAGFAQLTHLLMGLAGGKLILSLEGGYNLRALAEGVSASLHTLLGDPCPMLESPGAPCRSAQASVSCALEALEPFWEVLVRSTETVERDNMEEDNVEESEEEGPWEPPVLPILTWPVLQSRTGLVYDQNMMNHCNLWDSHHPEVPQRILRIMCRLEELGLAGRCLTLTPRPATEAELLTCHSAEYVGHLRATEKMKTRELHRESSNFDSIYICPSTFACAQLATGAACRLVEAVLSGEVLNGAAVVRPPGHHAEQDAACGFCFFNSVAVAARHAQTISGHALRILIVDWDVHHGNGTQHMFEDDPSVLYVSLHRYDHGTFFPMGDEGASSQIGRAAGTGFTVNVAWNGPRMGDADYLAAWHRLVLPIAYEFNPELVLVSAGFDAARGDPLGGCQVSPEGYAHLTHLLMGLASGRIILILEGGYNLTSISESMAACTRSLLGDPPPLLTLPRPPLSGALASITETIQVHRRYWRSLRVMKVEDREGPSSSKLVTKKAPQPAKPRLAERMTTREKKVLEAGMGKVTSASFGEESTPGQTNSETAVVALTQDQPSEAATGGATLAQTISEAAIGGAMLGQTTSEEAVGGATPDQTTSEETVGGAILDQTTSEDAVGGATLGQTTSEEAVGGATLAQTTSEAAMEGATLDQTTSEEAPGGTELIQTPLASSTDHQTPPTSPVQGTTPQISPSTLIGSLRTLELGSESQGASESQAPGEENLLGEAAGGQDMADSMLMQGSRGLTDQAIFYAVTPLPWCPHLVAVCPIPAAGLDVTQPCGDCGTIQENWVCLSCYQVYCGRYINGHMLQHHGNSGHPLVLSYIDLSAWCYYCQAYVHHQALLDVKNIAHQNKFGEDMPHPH

Histone deacetylase 7 = molecular target: T2, Histone deacetylase 7 (Homo sapiens, UniProt Q8WUI4); experiment: Inhibition of N-terminal GST-tagged recombinant human HDAC7 (501 to 952 residues) extracted from baculovirus expression system using Ac-Leu-Gly-Lys (Tfa)-AMC as substrate preincubated for 5 mins followed by substrate addition and measured after 30 mins by fluorescence microplate reader analysis
T2 sequence (Q8WUI4 whole entry): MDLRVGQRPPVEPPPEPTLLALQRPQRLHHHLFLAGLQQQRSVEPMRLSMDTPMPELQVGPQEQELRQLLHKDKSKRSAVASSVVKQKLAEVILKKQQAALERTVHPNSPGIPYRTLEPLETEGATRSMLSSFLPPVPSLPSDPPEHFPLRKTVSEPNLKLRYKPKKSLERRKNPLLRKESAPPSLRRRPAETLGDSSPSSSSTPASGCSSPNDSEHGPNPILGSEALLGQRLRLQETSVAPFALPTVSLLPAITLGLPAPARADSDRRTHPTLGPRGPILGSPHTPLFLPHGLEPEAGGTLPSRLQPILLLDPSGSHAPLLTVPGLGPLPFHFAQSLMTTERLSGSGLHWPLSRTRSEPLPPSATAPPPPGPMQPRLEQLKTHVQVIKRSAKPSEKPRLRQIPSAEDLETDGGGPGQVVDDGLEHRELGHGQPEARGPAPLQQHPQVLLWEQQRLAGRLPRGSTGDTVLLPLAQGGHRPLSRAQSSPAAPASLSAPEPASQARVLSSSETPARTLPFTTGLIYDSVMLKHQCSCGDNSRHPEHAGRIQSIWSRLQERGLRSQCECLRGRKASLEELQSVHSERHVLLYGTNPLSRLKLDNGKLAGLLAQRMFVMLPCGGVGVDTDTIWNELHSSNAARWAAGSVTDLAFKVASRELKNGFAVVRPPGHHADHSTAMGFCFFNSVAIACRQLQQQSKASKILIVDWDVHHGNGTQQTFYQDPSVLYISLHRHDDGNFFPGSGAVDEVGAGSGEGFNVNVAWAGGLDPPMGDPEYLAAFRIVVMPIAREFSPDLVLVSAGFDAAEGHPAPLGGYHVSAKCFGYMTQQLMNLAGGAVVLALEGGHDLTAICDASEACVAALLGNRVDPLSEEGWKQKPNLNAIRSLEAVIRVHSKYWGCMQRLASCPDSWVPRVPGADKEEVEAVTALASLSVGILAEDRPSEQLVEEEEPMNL

Histone deacetylase 8 = molecular target: T3, Histone deacetylase 8 (Homo sapiens, UniProt Q9BY41); experiment: Inhibition of C-terminal His-tagged recombinant full length human HDAC8 extracted from baculovirus infected Sf9 insect cells preincubated for 5 mins followed by substrate addition and measured after 30 mins by fluorescence microplate reader analysis
T3 sequence (Q9BY41 whole entry): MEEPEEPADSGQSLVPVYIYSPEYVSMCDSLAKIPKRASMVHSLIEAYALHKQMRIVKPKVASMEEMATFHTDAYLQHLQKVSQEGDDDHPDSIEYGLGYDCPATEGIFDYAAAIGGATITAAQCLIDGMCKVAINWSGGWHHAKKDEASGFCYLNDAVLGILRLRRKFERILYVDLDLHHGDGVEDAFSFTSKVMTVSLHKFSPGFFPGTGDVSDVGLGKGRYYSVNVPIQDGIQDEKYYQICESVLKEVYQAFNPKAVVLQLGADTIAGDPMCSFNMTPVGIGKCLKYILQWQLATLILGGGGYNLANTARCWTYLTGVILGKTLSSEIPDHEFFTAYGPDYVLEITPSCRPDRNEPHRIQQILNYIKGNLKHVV

B16-F10 = experiment: cells; details: Mus musculus, B16-F10, 48 h
HepG2 = experiment: cells; details: Homo sapiens, HepG2, 48 h
MCF7 = experiment: cells; details: Homo sapiens, MCF7, 48 h
Jurkat = experiment: cells; details: Homo sapiens, 72 h

Chain of Programmed cell death protein 1/Programmed cell death 1 ligand 1 (Q15116 whole entry): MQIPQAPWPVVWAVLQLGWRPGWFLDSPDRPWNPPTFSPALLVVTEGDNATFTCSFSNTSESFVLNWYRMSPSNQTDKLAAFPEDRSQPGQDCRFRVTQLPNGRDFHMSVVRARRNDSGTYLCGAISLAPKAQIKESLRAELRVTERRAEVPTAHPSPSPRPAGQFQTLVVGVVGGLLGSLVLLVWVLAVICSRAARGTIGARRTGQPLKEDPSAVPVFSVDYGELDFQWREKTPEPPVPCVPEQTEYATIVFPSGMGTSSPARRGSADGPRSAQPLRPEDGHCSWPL
Chain of Programmed cell death protein 1/Programmed cell death 1 ligand 1 (Q9NZQ7 whole entry): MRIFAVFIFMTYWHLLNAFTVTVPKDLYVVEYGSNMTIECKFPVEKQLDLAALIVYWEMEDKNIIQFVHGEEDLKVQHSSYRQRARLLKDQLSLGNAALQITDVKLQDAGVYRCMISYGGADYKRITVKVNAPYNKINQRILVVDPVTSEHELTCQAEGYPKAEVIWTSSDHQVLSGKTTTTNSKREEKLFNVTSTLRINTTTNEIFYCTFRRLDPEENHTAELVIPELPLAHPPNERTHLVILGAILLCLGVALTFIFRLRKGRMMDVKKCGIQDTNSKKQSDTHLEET

inhibition [2]	Compound	pIC50 [1]	other results
< 10%	COc1nc(OCc2cccc(-c3ccccc3)c2C)ccc1CNC(C)(C)CC(=O)Nc1ccccc1N	7.04	
< 10%	COc1nc(-c2cccc(-c3ccccc3)c2C)ccc1CNc1cc(C(=O)NO)c[nH]1	7.00	
< 13.5%	COc1nc(-c2cccc(-c3ccccc3)c2C)ccc1CNC1CCC(C(=O)Nc2ccccc2N)CC1 (stereo not drawn)	< 6.00	
< 13.5%	CC[C@@H](NCc1ccc(-c2cccc(-c3ccccc3)c2C)nc1OC)C(=O)Nc1ccccc1N	< 6.00	
< 10%	COc1nc(-c2cccc(-c3ccccc3)c2C)ccc1CN1CCC(C(=O)Nc2ccccc2N)CC1	7.00	
< 10%	CC[C@@H](NCc1ccc(OCc2cccc(-c3ccccc3)c2C)nc1OC)C(=O)Nc1ccccc1N	7.00	
< 10%	Nc1ccccc1NC(=O)c1ccc(CNC(=O)OCc2cccnc2)cc1		
< 10%	CCC[C@@H](NCc1ccc(OCc2cccc(-c3ccccc3)c2C)nc1OC)C(=O)Nc1ccccc1N	7.01	
< 13.5%	CCCC[C@@H](NCc1ccc(-c2cccc(-c3ccccc3)c2C)nc1OC)C(=O)Nc1ccccc1N	< 6.00	
< 10%	COc1nc(OCc2cccc(-c3ccccc3)c2C)ccc1CNC(C)(C)C(=O)NO	< 6.00	
< 10%	COc1nc(-c2cccc(-c3ccccc3)c2C)ccc1CN1CCN(C(=O)NO)CC1	7.00	
< 10%	CCCC[C@@H](NCc1ccc(OCc2cccc(-c3ccccc3)c2C)nc1OC)C(=O)Nc1ccccc1N	7.00	
< 10%	COc1nc(OCc2cccc(-c3ccccc3)c2C)ccc1CNCC(=O)NO	7.03	
< 10%	COc1nc(-c2cccc(-c3ccccc3)c2C)ccc1CNc1cccc(C(=O)Nc2ccccc2N)c1	< 6.00	
< 13.5%	COc1nc(-c2cccc(-c3ccccc3)c2C)ccc1CNC1(C(=O)Nc2ccccc2N)CCCC1	< 6.00	
< 10%	COc1nc(-c2cccc(-c3ccccc3)c2C)ccc1CNc1ccc(CC(=O)Nc2ccccc2N)cc1	7.00	
< 10%	COc1nc(-c2cccc(-c3ccccc3)c2C)ccc1CNc1ccc(C(=O)Nc2ccccc2N)s1	7.00	
< 10%	COc1nc(OCc2cccc(-c3ccccc3)c2C)ccc1CNC1CCC(C(=O)Nc2ccccc2N)CC1 (stereo not drawn)	< 6.00	

More lines, now with the values behind:

Compound	inhibition [2]	pIC50 [1]	other results
COc1nc(-c2cccc(-c3ccccc3)c2C)ccc1CNCCCCC(=O)NO		7.10	pIC50 (Histone deacetylase 7): < 4.00; pIC50 (Histone deacetylase 8): < 5.00; pIC50 (B16-F10): < 5.00; pIC50 (HepG2): 5.01; pIC50 (MCF7): < 5.00; pIC50 (Jurkat): < 5.00
COc1nc(OCc2cccc(-c3ccccc3)c2C)ccc1CNCCCCCC(=O)Nc1ccccc1N		7.02	
COc1nc(OCc2cccc(-c3ccccc3)c2C)ccc1CNCCCCCC(=O)NO		7.17	
COc1nc(-c2cccc(-c3ccccc3)c2C)ccc1CNCCC(=O)NO		7.17	
COc1nc(-c2cccc(-c3ccccc3)c2C)ccc1CNCCCC(=O)NO		7.68	pIC50 (Histone deacetylase 7): < 4.00; pIC50 (Histone deacetylase 8): < 5.00
COc1nc(OCc2cccc(-c3ccccc3)c2C)ccc1CNc1cccc(C(=O)NO)c1		7.00	
COc1nc(OCc2cccc(-c3ccccc3)c2C)ccc1CNc1ccc(C(=O)Nc2ccccc2N)cc1		< 6.00	
COc1nc(-c2cccc(-c3ccccc3)c2C)ccc1CNCCCCCCC(=O)Nc1ccccc1N		7.00	
COc1nc(OCc2cccc(-c3ccccc3)c2C)ccc1CNc1ccc(C(=O)NO)cc1		7.00	
COc1nc(-c2cccc(-c3ccccc3)c2C)ccc1Cn1ccc(C(=O)Nc2ccccc2N)c1		7.07	
COc1nc(-c2cccc(-c3ccccc3)c2C)ccc1CN1CCC(C(=O)Nc2ccccc2N)C1 (stereo not drawn)		7.00	
COc1nc(OCc2cccc(-c3ccccc3)c2C)ccc1CN1CCC(C(=O)Nc2ccccc2N)C1 (stereo not drawn)		7.14	
COc1nc(-c2cccc(-c3ccccc3)c2C)ccc1CNCCCCCC(=O)Nc1ccccc1N		7.06	
COc1nc(OCc2cccc(-c3ccccc3)c2C)ccc1CN1CCCC1C(=O)Nc1ccccc1N (stereo not drawn)		< 6.00	
COc1nc(OCc2cccc(-c3ccccc3)c2C)ccc1CNc1ccc(CC(=O)NO)cc1		7.00	
COc1nc(-c2cccc(-c3ccccc3)c2C)ccc1CNCCCCCC(=O)NO		7.16	pIC50 (Histone deacetylase 7): < 4.00; pIC50 (B16-F10): < 5.00; pIC50 (HepG2): < 5.00; pIC50 (MCF7): < 5.00; pIC50 (Jurkat): < 5.00
COc1nc(OCc2cccc(-c3ccccc3)c2C)ccc1CNCCCCCCC(=O)Nc1ccccc1N		7.08	
COc1nc(-c2cccc(-c3ccccc3)c2C)ccc1CNc1ccc(C(=O)NO)s1		7.00	
COc1nc(-c2cccc(-c3ccccc3)c2C)ccc1CNc1ccc2cc(C(=O)Nc3ccccc3N)ccc2c1		< 6.00	
COc1nc(OCc2cccc(-c3ccccc3)c2C)ccc1CNc1cc(C(=O)NO)c[nH]1		7.06	
COc1nc(OCc2cccc(-c3ccccc3)c2C)ccc1CNCCCC(=O)NO		< 6.00	
COc1nc(-c2cccc(-c3ccccc3)c2C)ccc1CNCC(=O)NO		7.79	pIC50 (Histone deacetylase 7): 5.00; pIC50 (Histone deacetylase 8): < 5.00; pIC50 (B16-F10): 5.07; pIC50 (HepG2): < 5.00; pIC50 (MCF7): < 5.00; pIC50 (Jurkat): 5.05
COc1nc(-c2cccc(-c3ccccc3)c2C)ccc1CNCCCC(=O)Nc1ccccc1N		7.08	pIC50 (B16-F10): 5.01; pIC50 (HepG2): < 5.00; pIC50 (MCF7): < 5.00; pIC50 (Jurkat): 5.12
COc1nc(-c2cccc(-c3ccccc3)c2C)ccc1CNc1ccc(CC(=O)NO)cc1		7.19	
COc1nc(-c2cccc(-c3ccccc3)c2C)ccc1CNCCCCC(=O)Nc1ccccc1N		7.00	
